IC50 data for 21 molecules are collected here from US9023851B2 (Merck Patent GmbH, priority 2010, dated 2015).

Holding throughout (format): biochemical
For one test, the target named is T1, Src (Homo sapiens, UniProt P12931).
T1 construct: purchased Carna Bioscience, Kobe, Japan
The experiment in a line: cSrc enzymatic assay (Caliper LifeSciences technology). The method, then:
(§1) Enzymatic Assays Using the Caliper LifeSciences Technology
(§2) The assays described here are performed on the Caliper Life Sciences LC3000 system This technology provides data on enzyme activity via measurement of the relative amounts of phosphorylated or unphosphorylated fluorescently labelled substrate peptide at the end of an enzymatic reaction. These different states of peptide are resolved by applying a potential difference across the sample. The presence of the charged phosphate group on the product (as opposed to the substrate) causes a different peptide mobility between the two peptides. This is visualized by excitation of the fluorescent label on the substrate and product peptides and represented as peaks within the analysis software.
(§3) In order to measure inhibitor activity of kinase inhibitors on this technology, a TTP Mosquito liquid handling instrument is used to place 0.25 ul of the appropriate concentration of inhibitor in 100% DMSO (for a dose response curve calculation) into each well of a 384-well plate. To this reaction components are added to a final volume of 25 ul. The table below indicates the sequences and concentrations for the assays described in this report. Standard components are 1 mM DTT (Sigma, D0632), 1 mM MgCl2 (Sigma, M1028), 100 mM HEPES pH 7.5 (Calbiochem, 391338), 0.015% Brij-35 (Sigma, B4184).
(§4) The reaction is incubated for 90 min at 25 C, and then stopped by the addition of 70 ul of Stop buffer (100 mM HEPES pH 7.5, 0.015% Brij-35, 10 mM EDTA (Sigma, E7889)).
(§5) The plate is read on a Caliper LC 3000 in an Off-Chip mobility shift assay format, on a 12-sipper chip. Unphosphorylated substrate and phosphorylated product peptide resolve as separate peaks allowing direct measurement of percentage of conversion of substrate to product. The percent conversion can be plotted against concentration of inhibitor to produce a sigmoidal dose response curve, from which an IC50 can be calculated using GeneData Condoseo or a similar product. Cellular activity assays

The next test deals with T2, Syk (Homo sapiens, UniProt P43405).
T2 construct: purchased BPS Bioscience, CA, USA
The experiment in a line: Syk enzyme assay (flash plate / Caliper mobility shift). The method, then:
The kinase assay is performed either as 384-well Flashplate assay (for e.g. Topcount measurement) or as 384-well Image-Flashplate assay (for LEADseeker measurement).
2.5 nM SYK, 400 nM Biotin-Aha-Aha-[…] and 10 μM ATP (spiked with 0.3 μCi 33P-ATP/well) are incubated in a total volume of 50 μl (60 mM Hepes, 10 mM MgCl2, 1.2 mM Dithiothreitol, 0.02% Brij35, 0.1% BSA, pH 7.5) with or without test compound for 1 hours at 30° C. The reaction is stopped with 25 μl 200 mM EDTA. After 30 Min at 30° C. the liquid is removed and each well washed thrice with 100 μl 0.9% sodium chloride solution. Non-specific reaction is determined in presence of 0.1 μM Staurosporine. Radioactivity is measured with Topcount (when using Flashplates) or with LEADseeker (when using Image-Flashplates) respectively. Results (e.g. IC50-values) are calculated with program tools provided by the IT-department (e.g. Symyx Assay Explorer, Genedata Screener).
as §1, §2, §3, §4, §5

The next test concerns the target T3, KDR (Homo sapiens, UniProt P35968).
T3 construct: purchased BPS Bioscience, CA, USA
The experiment in a line: KDR enzymatic assay (Caliper LifeSciences technology). On the procedure: as §1, §2, §3, §4, §5

Another test concerns the target T4, ZAP-70 (Homo sapiens, UniProt P43403).
T4 construct: purchased BPS Bioscience, CA, USA
T4 sequence (P43403 1-619): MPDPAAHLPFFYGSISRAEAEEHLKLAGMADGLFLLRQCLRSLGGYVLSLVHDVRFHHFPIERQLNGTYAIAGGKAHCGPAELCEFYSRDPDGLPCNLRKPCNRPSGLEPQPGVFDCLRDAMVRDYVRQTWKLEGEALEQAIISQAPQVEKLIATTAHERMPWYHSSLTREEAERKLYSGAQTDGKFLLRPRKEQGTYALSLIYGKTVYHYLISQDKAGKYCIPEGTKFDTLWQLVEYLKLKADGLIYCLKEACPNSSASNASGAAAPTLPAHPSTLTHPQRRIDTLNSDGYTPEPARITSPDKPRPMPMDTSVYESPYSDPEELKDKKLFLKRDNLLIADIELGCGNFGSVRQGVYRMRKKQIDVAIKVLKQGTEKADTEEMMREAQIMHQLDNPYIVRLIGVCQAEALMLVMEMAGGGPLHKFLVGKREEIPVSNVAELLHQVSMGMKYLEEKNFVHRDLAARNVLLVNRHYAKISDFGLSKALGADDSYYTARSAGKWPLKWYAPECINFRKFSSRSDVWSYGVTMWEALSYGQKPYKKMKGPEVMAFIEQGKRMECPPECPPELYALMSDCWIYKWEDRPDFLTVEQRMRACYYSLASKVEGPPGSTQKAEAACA
Put plainly: Zap70 enzymatic assay (Caliper LifeSciences technology). The method, then: as §1, §2, §3, §4, §5

The term IC50 denotes the concentration needed to halve the response being measured.

T1 sequence (P12931 whole entry): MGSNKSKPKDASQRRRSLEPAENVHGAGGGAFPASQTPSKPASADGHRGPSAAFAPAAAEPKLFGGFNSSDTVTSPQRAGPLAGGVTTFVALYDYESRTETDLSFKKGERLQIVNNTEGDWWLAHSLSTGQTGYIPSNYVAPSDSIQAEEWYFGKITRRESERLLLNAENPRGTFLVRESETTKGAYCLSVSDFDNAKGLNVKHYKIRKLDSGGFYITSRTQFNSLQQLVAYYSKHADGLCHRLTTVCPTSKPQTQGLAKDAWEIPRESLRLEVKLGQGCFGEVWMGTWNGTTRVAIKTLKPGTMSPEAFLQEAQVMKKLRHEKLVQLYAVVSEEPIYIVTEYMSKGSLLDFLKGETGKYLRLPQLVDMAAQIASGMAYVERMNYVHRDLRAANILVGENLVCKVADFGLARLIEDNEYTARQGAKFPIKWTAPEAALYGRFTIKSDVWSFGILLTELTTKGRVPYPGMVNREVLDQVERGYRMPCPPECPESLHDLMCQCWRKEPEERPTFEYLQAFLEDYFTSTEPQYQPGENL
T3 sequence (P35968 20-1356): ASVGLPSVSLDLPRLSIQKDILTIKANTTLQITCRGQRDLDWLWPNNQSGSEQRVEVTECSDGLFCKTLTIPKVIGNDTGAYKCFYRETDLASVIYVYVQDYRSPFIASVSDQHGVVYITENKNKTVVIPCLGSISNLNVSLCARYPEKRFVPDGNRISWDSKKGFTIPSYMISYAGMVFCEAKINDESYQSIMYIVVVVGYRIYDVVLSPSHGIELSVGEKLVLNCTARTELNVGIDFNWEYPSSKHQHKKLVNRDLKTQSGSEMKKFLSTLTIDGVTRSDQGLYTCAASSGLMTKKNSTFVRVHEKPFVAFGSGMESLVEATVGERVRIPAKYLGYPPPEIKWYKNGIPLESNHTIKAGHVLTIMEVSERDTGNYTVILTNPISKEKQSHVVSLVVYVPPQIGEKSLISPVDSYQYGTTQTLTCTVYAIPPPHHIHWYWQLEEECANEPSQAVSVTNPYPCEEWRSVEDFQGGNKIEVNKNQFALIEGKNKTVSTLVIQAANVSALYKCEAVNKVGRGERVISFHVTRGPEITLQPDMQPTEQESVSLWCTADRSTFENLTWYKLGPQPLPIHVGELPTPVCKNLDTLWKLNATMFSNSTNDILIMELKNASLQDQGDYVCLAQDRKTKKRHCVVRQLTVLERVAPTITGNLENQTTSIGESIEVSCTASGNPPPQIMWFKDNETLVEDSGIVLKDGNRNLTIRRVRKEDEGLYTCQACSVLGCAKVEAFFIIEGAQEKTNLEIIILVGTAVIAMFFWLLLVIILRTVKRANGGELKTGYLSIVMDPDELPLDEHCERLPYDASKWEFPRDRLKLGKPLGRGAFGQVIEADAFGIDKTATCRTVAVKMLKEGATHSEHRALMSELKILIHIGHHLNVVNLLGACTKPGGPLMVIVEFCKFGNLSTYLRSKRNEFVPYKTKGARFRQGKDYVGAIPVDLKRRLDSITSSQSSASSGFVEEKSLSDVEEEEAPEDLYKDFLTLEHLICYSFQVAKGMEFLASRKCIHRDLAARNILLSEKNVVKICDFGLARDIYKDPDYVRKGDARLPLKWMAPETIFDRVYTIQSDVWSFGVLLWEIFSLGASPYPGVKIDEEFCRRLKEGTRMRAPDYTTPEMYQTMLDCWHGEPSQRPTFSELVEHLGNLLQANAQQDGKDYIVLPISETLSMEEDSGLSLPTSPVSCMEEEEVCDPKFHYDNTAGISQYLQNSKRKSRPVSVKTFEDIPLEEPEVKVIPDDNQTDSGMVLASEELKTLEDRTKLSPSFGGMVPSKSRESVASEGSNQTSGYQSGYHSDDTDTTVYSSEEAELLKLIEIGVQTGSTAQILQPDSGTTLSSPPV

Regarding `COc1cc(Nc2nc3c(NCCCN(C)C)nccn3n2)cc(OC)c1` [Example C38, N^2-(3,5-Dimethoxy-phenyl)-N^8-(3-dimethylamino-propyl)-[1,2,4]triazolo[1,5-a]pyrazine-2,8-diamine], the IC50 against Src, on Syk and at KDR was 3 to 50 µM throughout.
In the case of `COc1cc(Nc2nc3c(NCCCN4CCN(C)CC4)nccn3n2)cc(OC)c1` [Example C30, N^2-(3,5-Dimethoxy-phenyl)-N^8-[3-(4-methyl-piperazin-1-yl)-propyl]-[1,2,4]triazolo[1,5-a]pyrazine-2,8-diamine], the IC50 against Src, on Syk and on KDR was 3 to 50 µM throughout.
For `COc1cc(OC)cc(-c2nccn3nc(Nc4ccc(Sc5nccn5C)c(Cl)c4)nc23)c1` [Example C25, [3-Chloro-4-(1-methyl-1H-imidazol-2-ylsulfanyl)-phenyl]-[8-(3,5-dimethoxy-phenyl)-[1,2,4]triazolo[1,5-a]pyrazin-2-yl]-amine], the concentration for half-maximal inhibition (IC50) on Syk, against ZAP-70 and at KDR was 3 to 50 µM in each case.
On to `Cc1cc(C)cc(Nc2nc3c(Cl)nccn3n2)c1` [Example B1, 8-Chloro-[1,2, 4]triazolo[1,5-a]pyrazin-2-yl-(3,5-dimethyl-phenyl)-amine], for which the IC50 on Syk lay in the range of 3 to 50 µM; on ZAP-70, 0.3 to 3 µM; against KDR, 3 to 50 µM.
Turning to `Cc1cccc(Nc2nc3c(NCCCN(C)C)nccn3n2)c1` [Example C46, N^8-(3-Dimethylamino-propyl)-N^2-m-tolyl-[1,2,4]triazolo[1,5-a]pyrazine-2,8-diamine], the IC50 against Src, at Syk and against KDR was 3 to 50 µM each time.
As for `COCCCNc1nccn2nc(Nc3cc(OC)cc(OC)c3)nc12` [Example C40, N^2-(3,5-Dimethoxy-phenyl)-N^8-(3-methoxy-propyl)-[1,2,4]triazolo[1,5-a]pyrazine-2,8-diamine], the IC50 at Src, at Syk and on KDR was 3 to 50 µM throughout.
For the molecule `COc1cc(Nc2nc3c(-c4cccc(CN)c4)nccn3n2)cc(OC)c1` [Example C114, [8-(3-Aminomethyl-phenyl)-[1,2,4]triazolo[1,5-a]pyrazin-2-yl]-(3,5-dimethoxy-phenyl)-amine], the half-maximal inhibitory concentration (IC50) against Src is 0.3 to 3 µM; on Syk it was under 0.3 µM; on KDR, 0.3 to 3 µM.
On to `NC(=O)c1cccc(-c2nccn3nc(Nc4ccc(N5CCOCC5)cc4)nc23)c1` [Example C277, 3-[2-(4-Morpholin-4-yl-phenylamino)-[1,2,4]triazolo[1,5-a]pyrazin-8-yl]-benzamide], for which the concentration for half-maximal inhibition (IC50) on Src was 0.3 to 3 µM; on Syk, under 0.3 µM; on KDR it was under 0.3 µM.
For `CN(C)CCCNc1nccn2nc(Nc3cccc(C(F)(F)F)c3)nc12` [Example C33, N^8-(3-Dimethylamino-propyl)-N^2-(3-trifluoromethyl-phenyl)-[1,2,4]triazolo[1,5-a]pyrazine-2,8-diamine], the IC50 at Src, on Syk and against KDR was 3 to 50 µM throughout.
With `c1ccc(Nc2nc3c(-c4cccnc4)nccn3n2)cc1` [Example C22, Phenyl-(8-pyridin-3-yl-[1,2,4]triazolo[1,5-a]pyrazin-2-yl)-amine], the figures for the IC50 on Src, on Syk and against KDR were 3 to 50 µM, 3 to 50 µM and 0.3 to 3 µM, respectively.
On to `Cc1cccc(Nc2nc3c(-c4ccccc4)nccn3n2)c1` [Example C1, (8-Phenyl-[1,2,4]triazolo[1,5-a]pyrazin-2-yl)-m-tolyl-amine], for which the IC50 at Syk was 0.3 to 3 µM; on ZAP-70, 3 to 50 µM; on KDR it was under 0.3 µM.
As for `Cc1cccc(Nc2nc3c(-c4cccnc4)nccn3n2)c1` [Example C21, (8-Pyridin-3-yl-[1,2,4]triazolo[1,5-a]pyrazin-2-yl)-m-tolyl-amine], the values for the IC50 on Syk, against ZAP-70 and on KDR were 0.3 to 3 µM, 3 to 50 µM and 0.3 to 3 µM, respectively.
Consider `COc1cc(Nc2nc3c(NCCN)nccn3n2)cc(OC)c1` [Example C29, N^8-(2-Amino-ethyl)-N^2-(3,5-dimethoxy-phenyl)-[1,2,4]triazolo[1,5-a]pyrazine-2,8-diamine], for which the concentration for half-maximal inhibition (IC50) on Src, at Syk and against KDR was 3 to 50 µM in each case.
As to `COc1cc(Nc2nc3c(NCCCN4CCOCC4)nccn3n2)cc(OC)c1` [Example C39, N^2-(3,5-Dimethoxy-phenyl)-N^8-(3-morpholin-4-yl-propyl)-[1,2,4]triazolo[1,5-a]pyrazine-2,8-diamine], the IC50 on Src, on Syk and on KDR was 3 to 50 µM each time.
Regarding `Cc1cc(C)cc(Nc2nc3c(NCCCN4CCOCC4)nccn3n2)c1` [Example C28, N^2-(3,5-Dimethyl-phenyl)-N^8-(3-morpholin-4-yl-propyl)-[1,2,4]triazolo[1,5-a]pyrazine-2,8-diamine], the IC50 is 3 to 50 µM at Src, 3 to 50 µM on Syk and 0.3 to 3 µM against KDR.
Consider `CN(C)CCCNc1nccn2nc(Nc3ccccc3)nc12` [Example C50, N^8-(3-Dimethylamino-propyl)-N^2-phenyl-[1,2,4]triazolo[1,5-a]pyrazine-2,8-diamine], for which the half-inhibitory concentration (IC50) on Syk, against ZAP-70 and against KDR was 3 to 50 µM in each case.
On to `Cc1cc(C)cc(Nc2nc3c(-c4ccc(N5CCOCC5)cc4)nccn3n2)c1` [Example C11, (3,5-Dimethyl-phenyl)-[8-(4-morpholin-4-yl-phenyl)-[1,2,4]triazolo[1,5-a]pyrazin-2-yl]-amine], for which the half-maximal inhibitory concentration (IC50) at Src, on Syk and at KDR was 3 to 50 µM in each case.
`COc1cc(Nc2nc3c(-c4cccc(C(N)=O)c4)nccn3n2)cc(OC)c1` [Example C276, 3-[2-(3,5-Dimethoxy-phenylamino)-[1,2,4]triazolo[1,5-a]pyrazin-8-yl]-benzamide]: the IC50 was 0.3 to 3 µM on Src, under 0.3 µM at Syk and under 0.3 µM against KDR.
On to `COc1cc(Nc2nc3c(Cl)nccn3n2)cc(OC)c1` [Example B2, 8-Chloro-[1,2,4]triazolo[1,5-a]pyrazin-2-yl-(3,5-dimethoxy-phenyl)-amine], for which the IC50 against Src and at Syk was 3 to 50 µM throughout.
Take `Cc1cc(C)cc(Nc2nc3c(-c4cccnc4)nccn3n2)c1` [Example C4, (3,5-Dimethyl-phenyl)-(8-pyridin-3-yl-[1,2,4]triazolo[1,5-a]pyrazin-2-yl)-amine]: the IC50 against Src, on Syk and against KDR was 0.3 to 3 µM throughout.
Take `FC(F)(F)c1cccc(Nc2nc3c(-c4cccnc4)nccn3n2)c1` [Example C20, (8-Pyridin-3-yl-[1,2,4]triazolo[1,5-a]pyrazin-2-yl)-(3-trifluoromethyl-phenyl)-amine]: the IC50 lay in the range of 3 to 50 µM on Src, 0.3 to 3 µM on Syk and 3 to 50 µM against KDR.
